{"source": "paper PMC9750858", "about": "“Rapid biosensor development using plant hormone receptors as reprogrammable scaffolds” (Nature Biotechnology, 2022)", "key": {"PYR1^4F [1]": {"target": "T1, PYR1^4F (Arabidopsis thaliana, UniProt O49686, A160G/F159V/H115Q/Y120G)", "T1 sequence (O49686 with tags, fused parts or gaps H115Q/Y120G/F159V/A160G)": "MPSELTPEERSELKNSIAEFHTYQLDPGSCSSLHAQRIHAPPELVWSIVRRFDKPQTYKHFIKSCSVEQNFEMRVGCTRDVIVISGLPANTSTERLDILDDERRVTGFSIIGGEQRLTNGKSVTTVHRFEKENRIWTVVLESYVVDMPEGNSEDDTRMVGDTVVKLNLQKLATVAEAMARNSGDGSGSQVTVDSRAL", "T1 sequence (Q9CAJ0 179-511 partner)": "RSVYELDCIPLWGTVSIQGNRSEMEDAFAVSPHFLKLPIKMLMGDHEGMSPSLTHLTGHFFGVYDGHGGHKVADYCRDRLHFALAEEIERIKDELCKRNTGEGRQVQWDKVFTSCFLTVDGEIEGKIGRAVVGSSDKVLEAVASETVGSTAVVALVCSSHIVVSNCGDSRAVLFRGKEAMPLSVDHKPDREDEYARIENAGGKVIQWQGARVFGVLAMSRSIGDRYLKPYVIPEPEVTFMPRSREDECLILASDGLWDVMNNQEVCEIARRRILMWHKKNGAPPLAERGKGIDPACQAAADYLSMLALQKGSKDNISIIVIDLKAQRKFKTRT", "test": "Split NanoLuc luciferase complementation in yeast, NLuc^N-PYR1^4F/NLuc^C-ΔN-HAB1", "type": "cell-based", "design": ">PYR1-4FMDMB; expressed in transfected cells; host or cells: Saccharomyces cerevisiae BY4742"}, "PYR1^WIN-M": {"target": "T2, PYR1^WIN-M (Arabidopsis thaliana, UniProt O49686, A160I/D26G/E4G/F159A/H60P/K59Q/N90S/Y23H)", "T2 construct": "made in house", "T2 sequence (O49686 with tags, fused parts or gaps E4G/Y23H/D26G/K59Q/H60P/N90S/F159A/A160I)": "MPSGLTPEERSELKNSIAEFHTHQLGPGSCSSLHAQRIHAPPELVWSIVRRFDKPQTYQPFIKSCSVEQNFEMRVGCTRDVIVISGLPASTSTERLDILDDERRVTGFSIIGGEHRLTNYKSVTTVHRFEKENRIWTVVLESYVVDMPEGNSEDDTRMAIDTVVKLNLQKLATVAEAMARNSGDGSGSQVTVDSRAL", "test": "ELISA-like plate assay, immobilized PYR1^WIN-M, biotinylated ΔN-HAB1^T+", "type": "binding", "settings": "replicates"}, "PYR1^4F / ΔN-HAB1": {"target": "T3, PYR1^4F / ΔN-HAB1 (Arabidopsis thaliana, UniProt O49686, A160G/F159V/H115Q/Y120G)", "T3 construct": "6xHis (N); made in house; host or cells: E. coli BL21 (DE3) pLysS", "T3 sequence (O49686 with tags, fused parts or gaps H115Q/Y120G/F159V/A160G)": "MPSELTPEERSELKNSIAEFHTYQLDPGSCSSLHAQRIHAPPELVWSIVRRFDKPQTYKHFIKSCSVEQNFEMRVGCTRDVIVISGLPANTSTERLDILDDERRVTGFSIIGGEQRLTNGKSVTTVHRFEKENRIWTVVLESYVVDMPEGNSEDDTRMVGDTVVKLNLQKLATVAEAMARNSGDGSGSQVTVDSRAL", "T3 sequence (Q9CAJ0 179-511 partner)": "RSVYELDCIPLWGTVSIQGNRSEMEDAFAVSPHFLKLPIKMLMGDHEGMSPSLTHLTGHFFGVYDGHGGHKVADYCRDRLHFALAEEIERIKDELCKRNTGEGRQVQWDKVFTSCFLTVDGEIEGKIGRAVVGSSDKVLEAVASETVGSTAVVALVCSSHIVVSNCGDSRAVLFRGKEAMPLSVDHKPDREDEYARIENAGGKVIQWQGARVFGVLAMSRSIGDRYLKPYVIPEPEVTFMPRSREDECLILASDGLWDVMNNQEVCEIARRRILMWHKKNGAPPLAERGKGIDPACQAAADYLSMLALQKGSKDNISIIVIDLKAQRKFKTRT", "test": "Ligand/receptor-mediated PP2C (ΔN-HAB1 phosphatase) inhibition, PYR1^4F", "type": "biochemical", "procedure": "Coding sequences of the cannabinoid sensors were cloned into the protein expression vector pET28a to encode 6×His-tag-receptor fusions. Constructs were sequenced and transformed into the BL21 (DE3) pLysS E. coli strain for heterologous expression with IPTG (1 mM), followed by purification, using affinity chromatography, as previously reported. In vitro validation of evolved sensors was performed by using recombinant sensors and ΔN-HAB1 (HAB1 Δ1–178, ref. [36]) proteins, as previously described. […] Cannabinoid concentration curves ranged from 4 to 10,000 nM, and median inhibitory concentrations for PP2C inhibition were obtained via fluorescent measurement in the presence of 1 mM 4-methylumbelliferyl phosphate."}, "PYR1^4F [2]": {"target": "T1, PYR1^4F", "test": "Yeast transcriptional activation circuit Z4-PYR1/VP64-ΔN-HAB1, GFP reporter, PYR1^4F"}, "PYR1^M (H60P, N90S)": {"target": "T4, PYR1^M (H60P, N90S) (Arabidopsis thaliana, UniProt O49686, H60P/N90S)", "T4 construct": "made in house; host or cells: E. coli (pET derivatives)", "T4 sequence (O49686 1-191 H60P/N90S)": "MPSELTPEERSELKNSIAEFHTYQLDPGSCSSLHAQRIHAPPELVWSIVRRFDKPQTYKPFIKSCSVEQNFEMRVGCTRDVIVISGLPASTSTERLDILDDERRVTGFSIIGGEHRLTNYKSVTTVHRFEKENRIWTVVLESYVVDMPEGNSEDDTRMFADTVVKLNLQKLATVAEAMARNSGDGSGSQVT", "T4 sequence (Q9CAJ0 179-511 C186S/R199A/D204A/S209V/H248S/F260E/C274S/D287K/S292N/S342A/M358I/N377A/R422E/N439S/M483K partner)": "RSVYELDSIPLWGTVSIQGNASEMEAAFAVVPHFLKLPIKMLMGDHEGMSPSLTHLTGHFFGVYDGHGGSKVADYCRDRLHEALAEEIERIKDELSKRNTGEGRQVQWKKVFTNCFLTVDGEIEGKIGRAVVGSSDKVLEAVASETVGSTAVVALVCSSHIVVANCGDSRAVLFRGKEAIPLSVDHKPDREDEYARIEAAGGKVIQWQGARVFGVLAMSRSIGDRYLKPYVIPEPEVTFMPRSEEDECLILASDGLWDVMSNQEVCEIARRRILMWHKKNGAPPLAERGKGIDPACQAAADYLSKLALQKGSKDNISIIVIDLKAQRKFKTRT", "test": "ELISA-like plate assay, immobilized PYR1^M, biotinylated ΔN-HAB1^T+, streptavidin-HRP", "type": "binding", "settings": "for ELISA signal generation, positive control (source data): PYR1^M tested with ABA, replicates, listed as + CNTRL"}, "PYR1^DIAZI [3]": {"target": "T5, PYR1^DIAZI (Arabidopsis thaliana, UniProt O49686, A160V/E8G/F108Y/F159G/L87M/M158V/V81Y)", "T5 sequence (O49686 other isoform, or with tags, fused parts or gaps E8G/V81Y/L87M/F108Y/M158V/F159G/A160V, one chain of several)": "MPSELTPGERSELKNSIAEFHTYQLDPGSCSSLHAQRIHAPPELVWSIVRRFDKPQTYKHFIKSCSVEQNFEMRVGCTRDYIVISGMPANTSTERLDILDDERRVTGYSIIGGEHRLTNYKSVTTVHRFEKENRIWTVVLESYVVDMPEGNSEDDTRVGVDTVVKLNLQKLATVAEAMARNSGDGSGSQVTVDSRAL", "test": "Split NanoLuc luciferase complementation in yeast, NLuc^N-PYR1^DIAZI/NLuc^C-HAB1", "type": "cell-based", "design": ">PYR1-DIAZI; expressed in transfected cells; host or cells: Saccharomyces cerevisiae BY4742", "settings": "Figure 4f(top), 3 replicates"}, "PYR1^DIAZI [4]": {"target": "T5, PYR1^DIAZI", "test": "Yeast transcriptional activation circuit Z4-PYR1/VP64-ΔN-HAB1, GFP reporter, PYR1^DIAZI", "settings": "read-out: EC50, yeast transcription circuit; PYR1^DIAZI, off-target ligand"}}, "note": "Values joined by “and” are separate entries in the source; they are usually repeats but may differ in a detail not shown here. Equal values may be shown once."}
{"smiles": "COC(=O)C(NC(=O)c1nn(CCCCF)c2ccccc12)C(C)(C)C", "note": "(stereo not drawn) [4F-MDMB, 4F-MDMB-BUTINACA]", "values": [{"measurement": "EC50", "setting": "PYR1^4F [1]", "result": 0.025, "unit": "µM"}, {"measurement": "ELISA signal generation, receptor cross-reactivity (source data)", "setting": "PYR1^WIN-M; cannabinoid at 2 nM", "result": "0.813 and 0.154 and 0.125"}, {"measurement": "ELISA signal generation, receptor cross-reactivity (source data)", "setting": "PYR1^WIN-M; cannabinoid at 2 μM", "result": "0.116 and 0.117 and 0.101"}, {"measurement": "EC50", "setting": "PYR1^4F / ΔN-HAB1", "result": 0.102, "unit": "µM"}, {"measurement": "EC50", "setting": "PYR1^4F [2]", "result": 0.023, "unit": "µM"}]}
{"smiles": "CC1=CC(=O)CC(C)(C)[C@@]1(O)/C=C/C(C)=C\\C(=O)O", "note": "[ABA, abscisic acid]", "values": [{"measurement": "ELISA signal generation, positive control (source data)", "setting": "PYR1^M (H60P, N90S); 2 nM", "result": "2.266 and 2.046 and 2.24"}, {"measurement": "ELISA signal generation, positive control (source data)", "setting": "PYR1^M (H60P, N90S); 2 μM", "result": "3.553 and 3.555 and 3.41"}, {"measurement": "Amax [AU 450 nm]", "setting": "PYR1^M (H60P, N90S); global fit, PYR1M/ABA/ΔN-HAB1T+ system, Biorep 1-3", "result": "2 AU 450 nm and 2.8 AU 450 nm"}, {"measurement": "Kd", "setting": "PYR1^M (H60P, N90S); global fit, PYR1M/ABA/ΔN-HAB1T+ system, Biorep 1-3, read-out: KD1", "result": "0.82 µM and 0.78 µM and 2.09 µM"}]}
{"smiles": "CCOP(=S)(OCC)SCn1nnc2ccccc2c1=O", "note": "[Azinphos-ethyl, azinphos-ethyl]", "values": [{"measurement": "Sensor signal (Figure 4f top), replicate values", "setting": "PYR1^DIAZI [3]; [Agonist] 1e-5 nM", "result": "19.1784 and 9.602 and 15.5607"}, {"measurement": "Sensor signal (Figure 4f top), replicate values", "setting": "PYR1^DIAZI [3]; [Agonist] 0.5 nM", "result": "28.6964 and 14.557 and 20.4786"}, {"measurement": "Sensor signal (Figure 4f top), replicate values", "setting": "PYR1^DIAZI [3]; [Agonist] 1 nM", "result": "22.2741 and 20.8671 and 16.0353"}, {"measurement": "Sensor signal (Figure 4f top), replicate values", "setting": "PYR1^DIAZI [3]; [Agonist] 10 nM", "result": "14.152 and 32.187 and 17.3809"}, {"measurement": "Sensor signal (Figure 4f top), replicate values", "setting": "PYR1^DIAZI [3]; [Agonist] 100 nM", "result": "20.787 and 38.118 and 25.3718"}, {"measurement": "Sensor signal (Figure 4f top), replicate values", "setting": "PYR1^DIAZI [3]; [Agonist] 1000 nM", "result": "52.3582 and 54.3696 and 50.5941"}, {"measurement": "Sensor signal (Figure 4f top), replicate values", "setting": "PYR1^DIAZI [3]; [Agonist] 10000 nM", "result": "95.7293 and 70.2485 and 89.5341"}, {"measurement": "Sensor signal (Figure 4f top), replicate values", "setting": "PYR1^DIAZI [3]; [Agonist] 100000 nM", "result": "109.007 and 68.7025 and 93.3077"}, {"measurement": "EC50", "setting": "PYR1^DIAZI [4]", "result": 1.1, "unit": "µM"}]}
